# From patent US20140349970A1 (ABBVIE INC., priority 2009, published 2014)
# Biological target: T1, Syk catalytic domain (aa 356-635 with a C-terminal His-tag) (Homo sapiens, UniProt P43405)
# T1 construct: His-tag (C); made in house
# Experiment: In vitro Syk kinase activity measured by trFRET, Syk catalytic domain
# Type: biochemical
# Conditions: Syk catalytic domain (aa 356-635), trFRET, 0.001 mM ATP
# Procedure: In Vitro Syk Kinase Activity Measured by Time-Resolved Fluorescence Resonance Energy Transfer (trFRET)
# 0.14 nM purified Syk catalytic domain (aa 356-635 with a C-terminal His-tag purified in-house by immobilized metal ion affinity chromatography) was mixed with 0.2 μM peptide substrate (biotin-TYR1, Sequence: Biotin-(Ahx)-GAEEEIYAAFFA-COOH) at varying inhibitor concentrations in reaction buffer: 50 mM MOPSO pH 6.5, 10 mM MgCl2, 2 mM MnCl2, 2.5 mM DTT, 0.01% BSA, 0.1 mM Na3VO4 and 0.001 mM ATP. After about 60 min incubation at rt, the reaction was quenched by addition of EDTA (final concentration: 100 mM) and developed by addition of revelation reagents (final approximate concentrations: 30 mM HEPES pH 7.0, 0.06% BSA, 0.006% Tween-20, 0.24 M KF, 80 ng/mL PT66K (europium labeled anti-phosphotyrosine antibody cat #61T66KLB Cisbio, Bedford, Mass.) and 0.6 μg/mL SAXL (Phycolink streptavidin-allophycocyanin acceptor, cat #PJ255, Prozyme, San Leandro, Calif.). The developed reaction was incubated in the dark either at about 4° C. for about 14 h or for about 60 min at rt, then read via a time-resolved fluorescence detector (Rubystar, BMG) using a 337 nm laser for excitation and monitoring emission wavelengths at 665 nm. Within the linear range of the assay, the observed signal at 665 nm was directly related to phosphorylated product and can be used to calculate the IC50 values.
# MOPSO buffer contains: 50 mM MOPSO pH 6.5, 10 mM MgCl2, 2 mM MnCl2, 2.5 mM DTT, 0.01% BSA, and 0.1 mM Na3VO4 HEPES buffer contains: 50 mM HEPES pH 7.1, 2.5 mM DTT, 10 mM MgCl2, 2 mM MnCl2, 0.01% BSA, and 0.1 mM Na3VO4 MOPS buffer contains: 20 mM MOPS pH 7.2, 10 mM MgCl2, 5 mM EGTA, 5 mM Beta-phosphoglycerol, 1 mM Na3VO4, 0.01% Triton-X-100 and 1 mM DTT
# Biotin-TYR1-peptide sequence: Biotin-(Ahx)-GAEEEIYAAFFA-COOH Biotin-TYR2-peptide sequence: Biotin-(Ahx)-AEEEYFFLFA-amide KinEASE 51 peptides were purchased from Cisbio (cat #62ST0PEB, Bedford, Mass.)
# PT66K was purchased from Cisbio (cat #61T66KLB, Bedford, Mass.) EuSTK was purchased from Cisbio (cat #62ST0PEB, Bedford, Mass.) SAXL was purchased from Prozyme (cat #PJ25S, San Leandro, Calif.) Human T-Blasts IL-2 pSTAT5 Cellular Assay
row,Compound,IC50 [µM]
1,CN(C)C(=O)c1ccc2c(-c3cc4c(ncc5cnn(C)c54)[nH]3)cn(C)c2c1 [J.1.4.1],< 0.1
2,Cn1cc(-c2cc3c(ncc4cnn(C)c43)[nH]2)c2ccc(C(=O)NCC(C)(C)CO)cc21 [J.1.4.2],< 0.1
3,Cn1cc(-c2cc3c(ncc4cnn(C)c43)[nH]2)c2ccc(C(=O)NC(C)(C)CO)cc21 [J.1.4.3],< 0.1
4,CC(=O)c1ccc(-c2cc3c(ncc4cnc(C(=O)N5CCCC5)n43)[nH]2)cc1 [J.1.5.1],< 0.1
5,CC(=O)c1ccc(-c2cc3c(ncc4cnc(C(=O)NCCN(C)C)n43)[nH]2)cc1 [J.1.5.2],0.1 to 1
6,CCCNC(=O)c1ccc(-c2nc(C)n3c2cnc2[nH]ccc23)cc1Cl [J.1.6.1],0.1 to 1
7,CCCNC(=O)c1cc(-c2nc(C)n3c2cnc2[nH]ccc23)ccc1OC [J.1.7.1],0.1 to 1
8,COc1ccc(-c2nc(C)n3c2cnc2[nH]ccc23)cc1C(=O)NCCN(C)C [J.1.7.2],0.1 to 1
9,COc1ccc(-c2nc(C)n3c2cnc2[nH]ccc23)cc1C(=O)NCCO [J.1.7.3],0.1 to 1
10,COc1ccc(-c2nc(C)n3c2cnc2[nH]ccc23)cc1C(N)=O [J.1.7.4],0.1 to 1
11,Cn1cc(-c2cc3c(ncc4cnn(C)c43)[nH]2)c2cc(C(=O)NCCN3CCOCC3)ccc21 [J.1.8.1],< 0.1
12,CN(C)CCNC(=O)c1ccc2c(c1)c(-c1cc3c(ncc4cnn(C)c43)[nH]1)cn2C [J.1.8.2],0.1 to 1
13,Cn1cc(-c2cc3c(ncc4cnn(C)c43)[nH]2)c2cc(C(=O)N3CCC(CO)CC3)ccc21 [J.1.8.3],< 0.1
14,CN(C)C(=O)c1ccc2c(c1)c(-c1cc3c(ncc4cnn(C)c43)[nH]1)cn2C [J.1.8.4],< 0.1
15,CN(CC(C)(C)CO)C(=O)c1ccc2c(c1)c(-c1cc3c(ncc4cnn(C)c43)[nH]1)cn2C [J.1.8.5],< 0.1
16,CN1CCN(C(=O)CNC(=O)c2ccc3c(c2)c(-c2cc4c(ncc5cnn(C)c54)[nH]2)cn3C)CC1 [J.1.8.6],< 0.1
17,Cn1cc(-c2cc3c(ncc4cnn(C)c43)[nH]2)c2cc(C(=O)NCCO)ccc21 [J.1.8.7],< 0.1
18,COc1ccc2c(c1)c(-c1cc3c(ncc4cnc([C@@H]5CCN(C(C)=O)C5)n43)[nH]1)cn2C [J.2.1.1],0.1 to 1
19,CC(=O)N[C@H]1CC[C@@H](c2ncc3cnc4[nH]c(-c5cccc(S(C)(=O)=O)c5)cc4n23)C1 [J.2.1.2],0.1 to 1
20,CC(=O)NCCCc1ncc2cnc3[nH]c(-c4cnn(C)c4)cc3n12 [J.2.1.3],0.1 to 1

row,Compound,IC50 [µM]
1,CC(=O)NC(C)(C)c1ccc(-c2nc(C3CCCCC3)n3c2cnc2[nH]ccc23)cc1 [J.2.1.4],< 0.1
2,CC(=O)N1CC=C(c2ncn3c2cnc2[nH]ccc23)CC1 [J.2.1.5],1 to 10
3,CC(=O)N1CCC(O)(c2ccc(-c3nc(C)n4c3cnc3[nH]ccc34)cc2)CC1 [J.2.1.6],< 0.1
4,COc1ccc(-c2nc([C@H]3CCC[C@@H](NC(C)=O)C3)n3c2cnc2[nH]ccc23)cc1 [J.2.1.7],0.1 to 1
5,CC(=O)NCc1nc(-c2ccc(C(C)(C)O)cc2)c2cnc3[nH]ccc3n12 [J.2.1.8],0.1 to 1
6,COc1ccc2c(c1)c(-c1cc3c(ncc4cnc([C@@H]5CC[C@H](NC(C)=O)C5)n43)[nH]1)cn2C [J.2.1.9],< 0.1
7,Cn1cc(-c2cc3c(ncc4cnn(C)c43)[nH]2)c2cc(C(=O)NC(C)(C)CO)ccc21 [J.2.2.1],< 0.1
8,Cn1cc(-c2cc3c(ncc4cnn(C)c43)[nH]2)c2cc(C(=O)NCC(C)(C)CO)ccc21 [J.2.2.2],< 0.1
9,CCOCCCNC(=O)Cn1cccc1-c1cc2c(ncc3cnn(C)c32)[nH]1 [J.2.3.1],1 to 10
10,Cn1ncc2cnc3[nH]c(-c4cccn4CC(=O)N4CCOCC4)cc3c21 [J.2.3.2],1 to 10
11,CN1CCN(C(=O)Cn2cccc2-c2cc3c(ncc4cnn(C)c43)[nH]2)CC1 [J.2.3.3],> 10
12,"Cn1ncc2cnc3[nH]c(-c4cccc(CNS(C)(=O)=O)c4)cc3c21 [K.1, N-(3-(1-Methyl-1,6-dihydropyrazolo[3,4-d]pyrrolo[2,3-b]pyridin-7-yl)benzyl)methanesulfonamide]",0.1 to 1
13,COc1ccc2c(c1)c(-c1cc3c(ncc4cnc([C@@H]5CC[C@H](NS(=O)(=O)C6CC6)C5)n43)[nH]1)cn2C [K.1.1],< 0.1
14,"COc1ccc2c(c1)c(-c1cc3c(ncc4cnc(C(F)(F)F)n43)[nH]1)cn2C [L.1.1, 7-(5-Methoxy-1-methyl-1H-indol-3-yl)-1-(trifluoromethyl)-6H-imidazo[1,5-a]pyrrolo[2,3-e]pyrazine]",0.1 to 1
15,"COc1ccc2c(c1)c(-c1cc3c(ncc4cnc(C5CCCOC5)n43)[nH]1)cn2C (centres unmarked) [M.1, 7-(5-Methoxy-1-methyl-1H-indol-3-yl)-1-(tetrahydro-2H-pyran-3-yl)-6H-imidazo[1,5-a]pyrrolo[2,3-e]pyrazine]",< 0.1
16,COc1ccc2c(c1)c(-c1cc3c(ncc4cnc(CC(F)(F)F)n43)[nH]1)cn2C [M.1.1],< 0.1
17,CS(=O)(=O)c1cccc(-c2cc3c(ncc4cnc(C(F)(F)F)n43)[nH]2)c1 [M.1.2],0.1 to 1
18,Cc1ncc2cnc3[nH]c(-c4cccc(S(C)(=O)=O)c4)cc3n12 [M.1.3],< 0.1
19,CS(=O)(=O)c1cccc(-c2cc3c(ncc4cnc(CCCNC(=O)C(F)(F)F)n43)[nH]2)c1 [M.1.4],0.1 to 1
20,CS(=O)(=O)c1cccc(-c2cc3c(ncc4cnc(C5CCCOC5)n43)[nH]2)c1 (centres unmarked) [M.1.5],0.1 to 1

row,Compound,IC50 [µM]
1,CS(=O)(=O)c1cccc(-c2cc3c(ncc4cnc(C5CCC(O)C5)n43)[nH]2)c1 (centres unmarked) [M.1.6],0.1 to 1
2,COc1ccc2c(c1)c(-c1cc3c(ncc4cnc(CCCO)n43)[nH]1)cn2C [M.1.7],< 0.1
3,COc1ccc2c(c1)c(-c1cc3c(ncc4cnc(N(C)C)n43)[nH]1)cn2C [M.1.8],< 0.1
4,CCc1c(-c2ccc(C(C)(C)O)cc2)[nH]c2ncc3cnc(C)n3c12 [M.1.9],0.1 to 1
5,COc1ccc2c(c1)c(-c1cc3c(ncc4cnc(C5CCOCC5)n43)[nH]1)cn2C [M.1.10],< 0.1
6,Cc1ncc2cnc3[nH]c(-c4cccc(C(=O)NCCN5CCOCC5)c4)cc3n12 [M.1.11],0.1 to 1
7,Cc1nnc2cnc3[nH]c(-c4cnn(C)c4)cc3n12 [M.1.12],1 to 10
8,COc1ccc2c(c1)c(-c1cc3c(ncc4cnc(CCC#N)n43)[nH]1)cn2C [M.1.13],< 0.1
9,COCCCc1ncc2cnc3[nH]c(-c4cn(C)c5ccc(OC)cc45)cc3n12 [M.1.14],< 0.1
10,CNc1ncc2cnc3[nH]c(-c4ccc(C)cc4)cc3n12 [M.1.15],0.1 to 1
11,Cc1ccc(-c2cc3c(ncc4cnc(N(C)C)n43)[nH]2)cc1 [M.1.16],0.1 to 1
12,COc1ccc2c(c1)c(-c1cc3c(ncc4cnc(N5CCCC5)n43)[nH]1)cn2C [M.1.17],< 0.1
13,Cc1ccc(-c2cc3c(ncc4cnc(N5CCCC5)n43)[nH]2)cc1 [M.1.18],0.1 to 1
14,COc1ccc(-c2cc3c(ncc4nnc(C)n43)[nH]2)cc1 [M.1.19],1 to 10
15,COc1ccc2c(c1)c(-c1cc3c(ncc4nccn43)[nH]1)cn2C [M.1.20],0.1 to 1
16,COCCN(C)c1cnc2cnc3[nH]c(-c4cn(C)c5ccc(OC)cc45)cc3n12 [M.1.21],< 0.1
17,COc1ccc(-c2cc3c(ncc4c(C)nc(C)n43)[nH]2)cc1 [M.1.22],0.1 to 1
18,COc1ccc(-c2cc3c(ncc4c(C)ncn43)[nH]2)cc1 [M.1.23],1 to 10
19,CS(=O)(=O)c1ccc(-n2c(=O)n(C3CCCCC3)c3c4cc[nH]c4ncc32)cc1 [M.1.24],> 10
